# Measured values taken from ChEMBL document CHEMBL4507300 (2021).
# Key:
# [1] = target: Activin receptor type-1B (Homo sapiens) (UniProt P36896); conditions: Compound concentration 1000.0 nM
# [2] = target: Bone morphogenetic protein receptor type-1B (Homo sapiens) (UniProt O00238); conditions: Compound concentration 1000.0 nM
# [3] = target: Serine/threonine-protein kinase BRSK1 (Homo sapiens) (UniProt Q8TDC3); conditions: Compound concentration 1000.0 nM
# [4] = target: Calcium/calmodulin-dependent protein kinase type II subunit delta (Homo sapiens) (UniProt Q13557); conditions: Compound concentration 1000.0 nM
# [5] = target: Calcium/calmodulin-dependent protein kinase kinase 1 (Homo sapiens) (UniProt Q8N5S9); conditions: Compound concentration 1000.0 nM
# [6] = target: Cyclin-dependent kinase 2 (Homo sapiens) (UniProt P24941); conditions: Compound concentration 1000.0 nM
# [7] = target: Cyclin-dependent kinase 3 (Homo sapiens) (UniProt Q00526); conditions: Compound concentration 1000.0 nM
# [8] = target: Cyclin-dependent kinase-like 1 (Homo sapiens) (UniProt Q00532); conditions: Compound concentration 1000.0 nM
# [9] = target: Casein kinase I isoform alpha (Homo sapiens) (UniProt P48729); conditions: Compound concentration 1000.0 nM
# [10] = target: Casein kinase I isoform gamma-1 (Homo sapiens) (UniProt Q9HCP0); conditions: Compound concentration 1000.0 nM
# Sequence of Casein kinase I isoform gamma-1 (Homo sapiens) (Q9HCP0 whole entry, looked up, canonical isoform): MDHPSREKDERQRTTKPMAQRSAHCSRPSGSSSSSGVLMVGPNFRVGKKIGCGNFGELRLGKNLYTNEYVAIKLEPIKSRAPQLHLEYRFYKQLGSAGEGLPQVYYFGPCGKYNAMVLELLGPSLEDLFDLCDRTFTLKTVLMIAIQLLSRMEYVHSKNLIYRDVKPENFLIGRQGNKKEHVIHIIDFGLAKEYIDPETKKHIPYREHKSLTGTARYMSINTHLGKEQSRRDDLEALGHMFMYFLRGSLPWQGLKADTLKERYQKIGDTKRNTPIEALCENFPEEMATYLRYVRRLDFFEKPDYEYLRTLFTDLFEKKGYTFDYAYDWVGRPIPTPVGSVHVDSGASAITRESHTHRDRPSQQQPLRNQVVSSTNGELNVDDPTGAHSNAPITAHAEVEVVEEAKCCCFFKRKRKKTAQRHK
# [11] = target: Mitogen-activated protein kinase kinase kinase 12 (Homo sapiens) (UniProt Q12852); conditions: Compound concentration 1000.0 nM
# [12] = test system: Epidermal growth factor receptor (Homo sapiens), P00533 [G719C]; conditions: Compound concentration 1000.0 nM
# [13] = test system: Epidermal growth factor receptor (Homo sapiens), P00533 [L861Q]; conditions: Compound concentration 1000.0 nM
# [14] = target: Ephrin type-A receptor 3 (Homo sapiens) (UniProt P29320); conditions: Compound concentration 1000.0 nM
# [15] = target: Fibroblast growth factor receptor 2 (Homo sapiens) (UniProt P21802); conditions: Compound concentration 1000.0 nM
# [16] = target: Fibroblast growth factor receptor 4 (Homo sapiens) (UniProt P22455); conditions: Compound concentration 1000.0 nM
# Sequence of Fibroblast growth factor receptor 4 (Homo sapiens) (P22455 22-802 limits assumed): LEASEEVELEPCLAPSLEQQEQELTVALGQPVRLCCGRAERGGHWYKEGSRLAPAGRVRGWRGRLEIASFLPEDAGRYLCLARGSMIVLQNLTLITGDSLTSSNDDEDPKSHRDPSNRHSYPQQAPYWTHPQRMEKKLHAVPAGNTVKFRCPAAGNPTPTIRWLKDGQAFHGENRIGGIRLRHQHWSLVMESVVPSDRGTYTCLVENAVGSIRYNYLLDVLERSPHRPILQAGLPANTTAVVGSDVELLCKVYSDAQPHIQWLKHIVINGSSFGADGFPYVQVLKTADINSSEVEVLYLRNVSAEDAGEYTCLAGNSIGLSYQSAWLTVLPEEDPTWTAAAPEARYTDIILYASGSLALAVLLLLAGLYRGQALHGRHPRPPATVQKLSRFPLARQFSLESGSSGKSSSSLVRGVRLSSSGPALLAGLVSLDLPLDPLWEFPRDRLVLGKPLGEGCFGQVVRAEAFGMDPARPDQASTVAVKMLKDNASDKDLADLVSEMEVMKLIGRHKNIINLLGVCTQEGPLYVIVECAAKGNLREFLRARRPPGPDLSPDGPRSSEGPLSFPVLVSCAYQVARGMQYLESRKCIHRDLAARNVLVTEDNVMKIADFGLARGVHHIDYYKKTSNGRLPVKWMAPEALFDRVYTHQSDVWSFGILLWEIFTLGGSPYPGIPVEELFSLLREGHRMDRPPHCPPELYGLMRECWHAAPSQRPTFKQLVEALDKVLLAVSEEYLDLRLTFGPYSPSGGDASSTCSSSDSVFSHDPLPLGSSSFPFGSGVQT
# [17] = test system: Receptor-type tyrosine-protein kinase FLT3 (Homo sapiens), P36888 [K663Q]; conditions: Compound concentration 1000.0 nM
# [18] = target: Tyrosine-protein kinase Fyn (Homo sapiens) (UniProt P06241); conditions: Compound concentration 1000.0 nM
# Sequence of Tyrosine-protein kinase Fyn (Homo sapiens) (P06241 2-537 limits assumed): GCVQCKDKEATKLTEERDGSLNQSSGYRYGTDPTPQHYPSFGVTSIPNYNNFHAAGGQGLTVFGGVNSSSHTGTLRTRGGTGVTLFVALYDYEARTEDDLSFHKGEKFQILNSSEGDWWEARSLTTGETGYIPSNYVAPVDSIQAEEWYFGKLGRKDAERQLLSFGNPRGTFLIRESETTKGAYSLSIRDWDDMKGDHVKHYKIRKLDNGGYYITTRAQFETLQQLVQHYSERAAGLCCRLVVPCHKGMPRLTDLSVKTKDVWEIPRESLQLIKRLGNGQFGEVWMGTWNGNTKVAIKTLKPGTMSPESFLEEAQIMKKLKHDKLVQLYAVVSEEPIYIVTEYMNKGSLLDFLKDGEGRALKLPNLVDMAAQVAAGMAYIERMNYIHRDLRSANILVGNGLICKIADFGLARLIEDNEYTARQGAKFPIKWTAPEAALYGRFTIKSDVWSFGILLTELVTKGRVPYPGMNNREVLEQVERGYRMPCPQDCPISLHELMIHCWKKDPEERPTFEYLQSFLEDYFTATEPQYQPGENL
# [19] = target: Inhibitor of nuclear factor kappa-B kinase subunit beta (Homo sapiens) (UniProt O14920); conditions: Compound concentration 1000.0 nM
# [20] = test system: Mast/stem cell growth factor receptor Kit (Homo sapiens), P10721 [V559D,V654A]; conditions: Compound concentration 1000.0 nM
# Sequence of Mast/stem cell growth factor receptor Kit (Homo sapiens), P10721 [V559D,V654A] (P10721 whole entry V559D/V654A): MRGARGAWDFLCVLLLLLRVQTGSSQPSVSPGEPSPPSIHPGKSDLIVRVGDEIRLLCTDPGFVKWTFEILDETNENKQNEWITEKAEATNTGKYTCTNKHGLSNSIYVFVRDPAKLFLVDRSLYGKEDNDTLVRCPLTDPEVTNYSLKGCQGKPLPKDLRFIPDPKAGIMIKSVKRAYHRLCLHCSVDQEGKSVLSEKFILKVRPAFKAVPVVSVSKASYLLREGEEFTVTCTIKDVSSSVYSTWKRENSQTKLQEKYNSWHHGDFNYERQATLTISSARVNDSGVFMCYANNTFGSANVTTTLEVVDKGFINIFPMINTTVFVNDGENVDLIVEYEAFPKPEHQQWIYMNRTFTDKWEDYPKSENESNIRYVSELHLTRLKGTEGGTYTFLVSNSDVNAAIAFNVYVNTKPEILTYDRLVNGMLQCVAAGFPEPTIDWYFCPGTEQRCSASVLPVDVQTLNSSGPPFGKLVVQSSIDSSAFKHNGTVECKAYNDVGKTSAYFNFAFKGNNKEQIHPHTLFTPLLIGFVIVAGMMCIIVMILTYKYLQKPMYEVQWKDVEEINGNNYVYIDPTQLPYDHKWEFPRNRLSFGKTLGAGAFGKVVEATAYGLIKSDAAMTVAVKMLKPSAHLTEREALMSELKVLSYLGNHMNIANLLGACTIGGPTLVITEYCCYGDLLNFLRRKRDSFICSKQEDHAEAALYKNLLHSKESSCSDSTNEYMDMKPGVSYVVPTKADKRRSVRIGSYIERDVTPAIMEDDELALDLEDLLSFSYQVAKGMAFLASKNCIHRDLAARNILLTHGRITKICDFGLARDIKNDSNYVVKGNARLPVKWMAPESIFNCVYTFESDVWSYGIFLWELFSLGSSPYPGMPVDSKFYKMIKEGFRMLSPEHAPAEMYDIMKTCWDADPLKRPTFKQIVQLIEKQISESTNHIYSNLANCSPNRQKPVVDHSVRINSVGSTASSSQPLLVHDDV
# [21] = target: Serine/threonine-protein kinase LATS2 (Homo sapiens) (UniProt Q9NRM7); conditions: Compound concentration 1000.0 nM
# [22] = target: MAP kinase-activated protein kinase 5 (Homo sapiens) (UniProt Q8IW41); conditions: Compound concentration 1000.0 nM
# [23] = target: Myosin light chain kinase family member 4 (Homo sapiens) (UniProt Q86YV6); conditions: Compound concentration 1000.0 nM
# [24] = target: Myosin-IIIb (Homo sapiens) (UniProt Q8WXR4); conditions: Compound concentration 1000.0 nM
# Sequence of Myosin-IIIb (Homo sapiens) (Q8WXR4 whole entry): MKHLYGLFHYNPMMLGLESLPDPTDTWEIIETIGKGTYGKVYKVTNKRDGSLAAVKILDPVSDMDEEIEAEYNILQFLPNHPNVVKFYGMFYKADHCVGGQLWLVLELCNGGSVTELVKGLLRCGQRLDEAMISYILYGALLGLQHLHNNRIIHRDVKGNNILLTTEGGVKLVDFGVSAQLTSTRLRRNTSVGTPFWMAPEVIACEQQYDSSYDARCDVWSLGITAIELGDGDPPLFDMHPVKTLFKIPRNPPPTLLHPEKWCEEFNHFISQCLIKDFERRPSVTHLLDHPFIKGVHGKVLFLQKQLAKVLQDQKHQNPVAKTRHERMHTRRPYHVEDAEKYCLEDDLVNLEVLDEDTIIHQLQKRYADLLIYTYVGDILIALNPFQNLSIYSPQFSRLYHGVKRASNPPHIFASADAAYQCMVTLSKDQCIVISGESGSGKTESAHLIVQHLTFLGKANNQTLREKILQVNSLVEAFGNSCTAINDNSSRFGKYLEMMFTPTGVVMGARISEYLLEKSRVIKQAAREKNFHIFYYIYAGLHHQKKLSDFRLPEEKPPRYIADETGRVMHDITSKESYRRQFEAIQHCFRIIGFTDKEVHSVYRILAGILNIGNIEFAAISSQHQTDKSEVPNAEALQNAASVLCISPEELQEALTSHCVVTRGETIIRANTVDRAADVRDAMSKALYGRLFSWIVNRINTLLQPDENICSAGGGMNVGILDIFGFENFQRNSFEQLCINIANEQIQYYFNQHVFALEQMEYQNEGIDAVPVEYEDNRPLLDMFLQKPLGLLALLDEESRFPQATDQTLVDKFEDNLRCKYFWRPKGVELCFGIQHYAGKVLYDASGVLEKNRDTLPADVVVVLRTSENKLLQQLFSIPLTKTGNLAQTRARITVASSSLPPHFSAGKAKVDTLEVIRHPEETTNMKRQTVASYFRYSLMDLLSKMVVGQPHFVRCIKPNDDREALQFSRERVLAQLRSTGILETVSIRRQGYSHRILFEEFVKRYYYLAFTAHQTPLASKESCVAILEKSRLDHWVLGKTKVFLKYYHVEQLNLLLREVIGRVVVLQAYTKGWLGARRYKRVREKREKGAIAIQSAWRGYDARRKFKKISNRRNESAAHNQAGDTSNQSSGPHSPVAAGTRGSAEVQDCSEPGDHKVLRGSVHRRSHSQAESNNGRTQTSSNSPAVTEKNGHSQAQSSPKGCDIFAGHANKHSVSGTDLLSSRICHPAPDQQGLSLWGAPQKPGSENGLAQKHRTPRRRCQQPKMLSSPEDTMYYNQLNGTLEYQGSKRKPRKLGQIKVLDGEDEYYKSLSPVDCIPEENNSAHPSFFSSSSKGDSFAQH
# [25] = target: Serine/threonine-protein kinase Nek2 (Homo sapiens) (UniProt P51955); conditions: Compound concentration 1000.0 nM
# [26] = target: Serine/threonine-protein kinase PAK 3 (Homo sapiens) (UniProt O75914); conditions: Compound concentration 1000.0 nM
# [27] = target: Cyclin-dependent kinase 17 (Homo sapiens) (UniProt Q00537); conditions: Compound concentration 1000.0 nM
# [28] = test system: Phosphatidylinositol 4,5-bisphosphate 3-kinase catalytic subunit alpha isoform (Homo sapiens), P42336 [E545A]; conditions: Compound concentration 1000.0 nM
# [29] = test system: Phosphatidylinositol 4,5-bisphosphate 3-kinase catalytic subunit alpha isoform (Homo sapiens), P42336 [H1047Y]; conditions: Compound concentration 1000.0 nM
# [30] = test system: Phosphatidylinositol 4,5-bisphosphate 3-kinase catalytic subunit alpha isoform (Homo sapiens), P42336 [I800L]; conditions: Compound concentration 1000.0 nM
# [31] = target: Serine/threonine-protein kinase pim-1 (Homo sapiens) (UniProt P11309); conditions: Compound concentration 1000.0 nM
# [32] = target: Protein kinase C theta type (Homo sapiens) (UniProt Q04759); conditions: Compound concentration 1000.0 nM
# [33] = target: Proto-oncogene tyrosine-protein kinase receptor Ret (Homo sapiens) (UniProt P07949); conditions: Compound concentration 1000.0 nM
# [34] = target: Ribosomal protein S6 kinase alpha-4 (Homo sapiens) (UniProt O75676); conditions: Compound concentration 1000.0 nM
# Sequence of Ribosomal protein S6 kinase alpha-4 (Homo sapiens) (O75676 whole entry, looked up): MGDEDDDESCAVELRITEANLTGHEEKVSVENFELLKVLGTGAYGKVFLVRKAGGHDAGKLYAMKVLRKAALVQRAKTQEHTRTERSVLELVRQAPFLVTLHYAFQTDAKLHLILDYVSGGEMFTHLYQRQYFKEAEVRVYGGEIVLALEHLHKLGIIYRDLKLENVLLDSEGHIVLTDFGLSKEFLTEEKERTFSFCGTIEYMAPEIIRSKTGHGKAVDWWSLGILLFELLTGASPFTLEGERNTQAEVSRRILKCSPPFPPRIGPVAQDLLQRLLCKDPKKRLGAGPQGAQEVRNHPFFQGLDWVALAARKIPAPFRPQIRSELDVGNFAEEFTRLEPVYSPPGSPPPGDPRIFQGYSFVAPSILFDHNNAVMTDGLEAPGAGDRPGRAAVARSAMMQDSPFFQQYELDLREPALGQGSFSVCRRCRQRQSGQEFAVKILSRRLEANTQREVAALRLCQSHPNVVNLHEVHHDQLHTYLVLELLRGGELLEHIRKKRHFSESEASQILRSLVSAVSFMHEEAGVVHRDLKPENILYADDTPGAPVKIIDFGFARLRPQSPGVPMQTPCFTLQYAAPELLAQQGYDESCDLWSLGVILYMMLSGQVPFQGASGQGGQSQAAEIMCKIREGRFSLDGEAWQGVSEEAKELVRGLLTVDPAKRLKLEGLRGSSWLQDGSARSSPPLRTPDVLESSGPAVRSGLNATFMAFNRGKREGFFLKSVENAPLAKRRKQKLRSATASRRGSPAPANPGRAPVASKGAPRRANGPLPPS
# [35] = target: Ribosomal protein S6 kinase alpha-4 (Homo sapiens) (UniProt O75676); conditions: Compound concentration 1000.0 nM; remark: listed apart in the source
# [36] = target: Ribosomal protein S6 kinase alpha-2 (Homo sapiens) (UniProt Q15349); conditions: Compound concentration 1000.0 nM
# [37] = target: Ribosomal protein S6 kinase alpha-6 (Homo sapiens) (UniProt Q9UK32); conditions: Compound concentration 1000.0 nM
# [38] = target: STE20-like serine/threonine-protein kinase (Homo sapiens) (UniProt Q9H2G2); conditions: Compound concentration 1000.0 nM
# [39] = target: Serine/threonine-protein kinase 33 (Homo sapiens) (UniProt Q9BYT3); conditions: Compound concentration 1000.0 nM
# [40] = target: Non-receptor tyrosine-protein kinase TYK2 (Homo sapiens) (UniProt P29597); conditions: Compound concentration 1000.0 nM
# [41] = target: Serine/threonine-protein kinase ULK2 (Homo sapiens) (UniProt Q8IYT8); conditions: Compound concentration 1000.0 nM
# [42] = target: 5-hydroxytryptamine receptor 1D (Homo sapiens) (UniProt P28221); conditions: Compound concentration 10.0 uM
# [43] = target: Histamine H2 receptor (Homo sapiens) (UniProt P25021); conditions: Compound concentration 10.0 uM
# [44] = target: Alpha-2C adrenergic receptor (Homo sapiens) (UniProt P18825); conditions: Compound concentration 10.0 uM
# [45] = target: Muscarinic acetylcholine receptor M1 (Homo sapiens) (UniProt P11229); conditions: Compound concentration 10.0 uM
compound,measurement,setting,value
COc1cccc(CNC(=O)c2nc3scc(COCc4ccc(C(=O)O)cc4)c3c(=O)[nH]2)c1 [T-26c],residual activity,[1],89.4%
same,residual activity,[2],64.5%
same,residual activity,[3],100%
same,residual activity,[4],100%
same,residual activity,[5],100%
same,residual activity,[6],100%
same,residual activity,[7],100%
same,residual activity,[8],100%
same,residual activity,[9],82.1%
same,residual activity,[10],100%
same,residual activity,[11],58.2%
same,residual activity,[12],91.4%
same,residual activity,[13],77.8%
same,residual activity,[14],91.3%
same,residual activity,[15],100%
same,residual activity,[16],91.4%
same,residual activity,[17],93%
same,residual activity,[18],81.1%
same,residual activity,[19],73.2%
same,residual activity,[20],98%
same,residual activity,[21],86.2%
same,residual activity,[22],93.8%
same,residual activity,[23],100%
same,residual activity,[24],100%
same,residual activity,[25],100%
same,residual activity,[26],51.9%
same,residual activity,[27],87.8%
same,residual activity,[28],89.2%
same,residual activity,[29],100%
same,residual activity,[30],77.2%
same,residual activity,[31],100%
same,residual activity,[32],100%
same,residual activity,[33],72.3%
same,residual activity,[34],100%
same,residual activity,[35],82.3%
same,residual activity,[36],100%
same,residual activity,[37],100%
same,residual activity,[38],100%
same,residual activity,[39],100%
same,residual activity,[40],79.8%
same,residual activity,[41],70.8%
same,inhibition,[42],-1.39%
same,inhibition,[43],28.4%
same,inhibition,[44],4.23%
same,inhibition,[45],53.4%
